From ChEMBL document CHEMBL4351013, “Carboxamides vs. methanimines: Crystal structures, binding interactions, photophysical studies, and biological evaluation of (indazole-5-yl)methanimines as monoamine oxidase B and acetylcholinesterase inhibitors” (Eur J Med Chem, 2019)

Key:
[1] = biological target: Cholinesterase (Homo sapiens) (UniProt P06276); assay: Inhibition of BuChE in human serum using S-butyrylthiocholine iodide as substrate at 100 uM preincubated with enzyme for 10 mins followed by substrate addition measured for 15 mins by Ellman's method relative to control; assay type: cell-free
Sequence of Cholinesterase (Homo sapiens) (P06276 whole entry): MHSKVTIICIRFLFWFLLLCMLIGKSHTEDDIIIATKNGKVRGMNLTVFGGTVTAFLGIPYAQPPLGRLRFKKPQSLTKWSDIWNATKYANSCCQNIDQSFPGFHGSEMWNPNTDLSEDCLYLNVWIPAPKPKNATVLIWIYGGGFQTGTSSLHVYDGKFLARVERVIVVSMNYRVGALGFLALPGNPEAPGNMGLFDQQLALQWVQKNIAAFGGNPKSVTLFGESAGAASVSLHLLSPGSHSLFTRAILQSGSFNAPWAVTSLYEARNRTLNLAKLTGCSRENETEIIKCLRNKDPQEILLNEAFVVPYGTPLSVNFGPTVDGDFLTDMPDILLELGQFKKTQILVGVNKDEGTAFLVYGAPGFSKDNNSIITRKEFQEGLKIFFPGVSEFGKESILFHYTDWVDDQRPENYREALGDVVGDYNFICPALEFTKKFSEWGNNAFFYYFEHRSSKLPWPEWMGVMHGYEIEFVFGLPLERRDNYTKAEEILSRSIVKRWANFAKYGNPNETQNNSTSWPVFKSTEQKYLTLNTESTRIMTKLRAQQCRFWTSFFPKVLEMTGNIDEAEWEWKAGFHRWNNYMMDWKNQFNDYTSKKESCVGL

[2] = biological target: T1, Amine oxidase [flavin-containing] B (Homo sapiens, UniProt P27338); assay: Potency index, ratio of selegiline IC50 to compound IC50 for human recombinant MAO-B expressed in baculovirus infected BTI-TN-5B1-4 insect cells using p-tyramine as substrate
T1 sequence (P27338 whole entry): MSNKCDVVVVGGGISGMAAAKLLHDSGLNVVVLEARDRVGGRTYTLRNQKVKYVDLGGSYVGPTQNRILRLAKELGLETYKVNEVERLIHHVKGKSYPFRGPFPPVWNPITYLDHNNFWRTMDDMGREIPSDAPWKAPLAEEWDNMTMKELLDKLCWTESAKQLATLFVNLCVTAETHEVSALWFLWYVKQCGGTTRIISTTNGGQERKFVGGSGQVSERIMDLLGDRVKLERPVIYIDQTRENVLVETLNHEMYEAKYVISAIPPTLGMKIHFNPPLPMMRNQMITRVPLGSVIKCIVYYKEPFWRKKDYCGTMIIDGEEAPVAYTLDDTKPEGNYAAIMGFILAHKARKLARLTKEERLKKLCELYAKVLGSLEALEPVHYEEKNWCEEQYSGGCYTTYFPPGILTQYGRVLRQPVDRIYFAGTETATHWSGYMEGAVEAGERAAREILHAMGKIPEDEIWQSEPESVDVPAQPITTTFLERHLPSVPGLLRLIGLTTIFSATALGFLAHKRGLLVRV

[3] = Cytotoxicity against human HepG2 cells assessed as cell viability at 50 uM measured after 72 hrs by MTT assay relative to control; assay type: cell-based; conditions: read-out: Activity
[4] = system: HepG2; assay: Cytotoxicity against human HepG2 cells assessed as mitochondrial dysfunction at 25 to 50 uM; assay type: cell-based; conditions: hepg2, 50 µM
[5] = species: Homo sapiens; assay: Selectivity index, ratio of IC50 for human recombinant MAO-A expressed in baculovirus infected BTI-TN-5B1-4 cells to IC50 for human recombinant MAO-B expressed in baculovirus infected BTI-TN-5B1-4 cells
[6] = Stability of the compound in ACN at 50 uM measured under daylight exposure for 76 days by UV-visible spectra analysis; assay type: physicochemical; conditions: 1824 h
[7] = Stability of the compound in DMSO at 50 uM measured under daylight exposure for 76 days by UV-visible spectra analysis; assay type: physicochemical; conditions: 1824 h
[8] = biological target: T2, Amine oxidase [flavin-containing] A (Homo sapiens, UniProt P21397); assay: biochemical
T2 sequence (P21397 whole entry): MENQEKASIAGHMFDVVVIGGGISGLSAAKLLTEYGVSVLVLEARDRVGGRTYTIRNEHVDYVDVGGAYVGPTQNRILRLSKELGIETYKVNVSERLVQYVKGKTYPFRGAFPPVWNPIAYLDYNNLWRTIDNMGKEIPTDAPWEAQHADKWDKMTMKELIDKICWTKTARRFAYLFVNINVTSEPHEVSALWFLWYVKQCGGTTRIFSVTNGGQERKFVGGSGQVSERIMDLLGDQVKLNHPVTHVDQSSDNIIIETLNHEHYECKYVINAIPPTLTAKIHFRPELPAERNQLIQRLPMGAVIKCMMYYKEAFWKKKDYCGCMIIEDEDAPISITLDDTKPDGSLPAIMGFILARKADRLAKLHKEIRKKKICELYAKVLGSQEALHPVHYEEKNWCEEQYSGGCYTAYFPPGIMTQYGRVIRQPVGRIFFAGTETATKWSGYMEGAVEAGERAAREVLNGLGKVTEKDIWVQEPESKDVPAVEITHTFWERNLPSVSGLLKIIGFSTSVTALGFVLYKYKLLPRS
Description: Inhibition of human recombinant MAO-A expressed in baculovirus infected BTI-TN-5B1-4 insect cells assessed as decrease in H2O2 production using p-tyramine as substrate incubated for 20 mins by horse-radish peroxidase/amplex red-based fluorescence method

[9] = biological target: T1, Amine oxidase [flavin-containing] B; assay: Competitive inhibition of human recombinant MAO-B expressed in baculovirus infected BTI-TN-5B1-4 insect cells using p-tyramine as substrate by Lineweaver-Burk plot analysis
[10] = biological target: T1, Amine oxidase [flavin-containing] B; assay: biochemical; assay type: cell-based, BTI-TN-5B1-4
Description: Inhibition of human recombinant MAO-B expressed in baculovirus infected BTI-TN-5B1-4 insect cells assessed as decrease in H2O2 production using p-tyramine as substrate incubated for 20 mins by horse-radish peroxidase/amplex red-based fluorescence method

[11] = biological target: T1, Amine oxidase [flavin-containing] B; assay: Competitive inhibition of human recombinant MAO-B expressed in baculovirus infected BTI-TN-5B1-4 insect cells using p-tyramine as substrate by Dixon- plot analysis
[12] = biological target: Acetylcholinesterase (Homo sapiens, UniProt P22303); assay: Inhibition of AChE in human erythrocytes using acetylthiocholine iodide as substrate preincubated with enzyme for 10 mins followed by substrate addition measured for 15 mins by Ellman's method; assay type: cell-based
Sequence of Acetylcholinesterase (P22303 whole entry): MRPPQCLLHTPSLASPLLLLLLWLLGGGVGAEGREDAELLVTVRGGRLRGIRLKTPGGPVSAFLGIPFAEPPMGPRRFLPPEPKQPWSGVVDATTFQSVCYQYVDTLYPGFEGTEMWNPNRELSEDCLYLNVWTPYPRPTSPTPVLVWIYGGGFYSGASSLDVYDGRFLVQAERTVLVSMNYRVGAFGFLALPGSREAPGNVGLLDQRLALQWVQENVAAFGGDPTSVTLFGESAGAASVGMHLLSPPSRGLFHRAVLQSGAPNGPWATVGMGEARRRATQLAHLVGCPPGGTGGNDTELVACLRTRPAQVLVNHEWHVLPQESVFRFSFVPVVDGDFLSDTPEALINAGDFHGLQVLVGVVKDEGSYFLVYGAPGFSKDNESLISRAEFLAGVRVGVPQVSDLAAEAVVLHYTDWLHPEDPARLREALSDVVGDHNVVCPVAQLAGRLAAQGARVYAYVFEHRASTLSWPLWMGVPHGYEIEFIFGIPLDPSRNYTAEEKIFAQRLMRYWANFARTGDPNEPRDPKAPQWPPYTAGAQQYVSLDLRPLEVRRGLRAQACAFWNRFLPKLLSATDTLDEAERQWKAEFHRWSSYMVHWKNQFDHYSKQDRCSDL

[13] = Stability of the compound in dry MeOH at 1 to 10 mM measured under daylight exposure for 24 to 96 hrs by LC/ESI-MS analysis; assay type: physicochemical; conditions: 10000 µM
[14] = Stability of the compound in MeOH assessed as compound purity level at 50 uM measured under daylight exposure for 76 days by LC/ESI-MS analysis; assay type: physicochemical; conditions: methanol; read-out: Stability
[15] = Stability of the compound in dry MeOH assessed as dimers at 1 mM measured under daylight exposure for >96 hrs by LC/ESI-MS analysis; assay type: physicochemical; conditions: 1000 µM
[16] = Stability of the compound in MeOH at 50 uM measured under daylight exposure for 3 days by UV-visible spectra analysis; assay type: physicochemical; conditions: 72 h
[17] = Stability of the compound in dry MeOH at 1 mM measured under daylight for 62 days by LC/ESI-MS analysis; assay type: physicochemical; conditions: 1488 h, 1000 µM
[18] = Stability of the compound in dry MeOH assessed as compound crystallization at 10 mM measured under daylight for 43 hrs by LC/ESI-MS analysis; assay type: physicochemical; conditions: 10000 µM

Row | Structure (SMILES) | inhibition [1] | Ratio IC50 [5] | IC50 [8] | Ki [10] | further results
1 | O=C(Nc1ccc(Cl)c(Cl)c1)c1ccc2[nH]ncc2c1 | 11.3% | 17100 | – | – | Ratio IC50 [2]: 9; viability at 72 h, 50 µM [3]: 66.3%; Activity [4]: Non-Toxic
2 | Clc1ccc(/N=C/c2ccc3[nH]ncc3c2)cc1Cl | 9.01% | – | > 10 µM | – | Stability [6]: Stable; Stability [7]: Stable; viability at 72 h, 50 µM [3]: 80.6%; Activity [4]: Non-Toxic
3 | Cn1ncc2cc(/C=N/c3ccc(Cl)c(Cl)c3)ccc21 | 8.57% | 9710 | > 10 µM | 0.46 nM | inhibition (INH) [9]: Active; Ki [11]: 0.63 nM
4 | COCCn1ncc2cc(/C=N/c3ccc(Cl)c(Cl)c3)ccc21 | 2.27% | 3160 | > 10 µM | 0.57 nM | IC50 [10]: 1.29 nM
5 | O=C(Nc1ccc(Cl)c(F)c1)c1ccc2[nH]ncc2c1 | 2.23% | 15000 | – | 0.29 nM | –
6 | O=C(Nc1cnc(Cl)c(Cl)c1)c1ccc2[nH]ncc2c1 | 9.23% | > 1840 | > 10 µM | 2.39 nM | –
7 | O=C(Nc1ccc(F)c(Cl)c1)c1ccc2[nH]ncc2c1 | 7.21% | – | – | – | –
8 | COCCn1ncc2cc(C(=O)Nc3ccc(Cl)c(Cl)c3)ccc21 | 9.58% | > 2660 | – | – | Ki [8]: 0.48 nM
9 | Cn1ncc2cc(C(=O)Nc3ccc(Cl)c(Cl)c3)ccc21 | 11.1% | – | – | – | IC50 [12]: 78.3 µM
10 | Fc1ccc(/N=C/c2ccc3[nH]ncc3c2)cc1Cl | 4.56% | 4760 | > 10 µM | 0.93 nM | –
11 | Clc1cc(/N=C/c2ccc3[nH]ncc3c2)cnc1Cl | 9.64% | > 7810 | > 10 µM | 0.57 nM | Stability [6]: Stable; Stability [13]: Stable; Ratio IC50 [2]: 4.3; Stability [7]: Stable; remaining at 1824 h, 50 µM [14]: 68.1%; Stability [15]: Unstable; Stability [16]: Stable; Stability [17]: Unstable; IC50 [10]: 1.28 nM; Stability [18]: Unstable
12 | Fc1cc(/N=C/c2ccc3[nH]ncc3c2)ccc1Cl | 6.97% | 5240 | – | 0.84 nM | –
